This passage reports EC50 results from patent US9416124B2, “Substituted 2-alkyl-1-OXO-N-phenyl-3-heteroaryl-1,2,3,4-tetrahydroisoquinoline-4-carboxamides for antimalarial therapies” (ST. JUDE CHILDREN'S RESEARCH HOSPITAL, priority 2011, dated 2016).

The subject of one assay is P. falciparum 3D7. Kind of assay: P. falciparum drug susceptibility assay (3D7). The class given is cell-based, Plasmodium falciparum. Conditions: 3D7 strain; racemate unless indicated; read-out: 3D7_EC50. The method, then: Parasites were grown as previously described in Mallari, J. P., Guiguemde, W. A., and Guy, R. K., Antimalarial activity of thiosemicarbazones and purine derived nitriles, Bioorg Med Chem Lett 19 (13), 3546 (2009). […] DMSO inhibitor stock solutions were pin-transferred (V&P Scientific) into the assay plate and background fluorescence was measured in both relevant channels (485 nm /535 nm, 612 nm /665 nm) in an Envision plate reader (PerkinElmer). Then 20 μl of a synchronized culture suspension (1% rings, 10% hematocrit) were added per well, thus making a final hematocrit and parasitemia of 5% and 1% respectively. Assay plates were incubated for 72 h and parasitemia was determined based on a modified protocol. (Smilkstein, M. et al., Simple and inexpensive fluorescence-based technique for high-throughput antimalarial drug screening. Antimicrob Agents Chemother 48 (5), 1803 (2004)). Briefly, 5 μl of mixed DNA dye solution in RPMI (5X SYBR Green I, 1 μM YOYO-3, 1% v/v Triton X-100, 1 mg/ml saponin) were added per well, assay plates were shaken for 30 s at 2000 rpm, incubated in the dark for 4 h, then read as previously described.
On to `N#Cc1cc(NC(=O)C2c3ccccc3C(=O)N(CC(F)(F)F)C2c2cccnc2)ccc1F` (single isomer, unassigned; isomer d) [Example 6 d-isomer, d-N-(3-cyano-4-fluoro) -1-Oxo-3-pyridin-3-yl-2-(2,2,2-trifluoro-ethyl)-1,2,3,4-tetrahydro-isoquinoline-4-carboxamide], for which the EC50 was determined as 17 nM. Consider `N#Cc1cc(F)cc(NC(=O)C2c3ccccc3C(=O)N(CC(F)(F)F)C2c2cn[nH]c2)c1` (single isomer, unassigned; isomer d) [Example 20 d-isomer, d-N-(3-cyano-5-fluorophenyl)-1-oxo-3-(1H-pyrazol-4-yl)-2-(2,2,2-trifluoroethyl)-1,2,3,4-tetrahydroisoquinoline-4-carboxamide], for which the EC50 is 8 nM.

The assay is the same for the next values; noted with them: Plasmodium falciparum; 3D7 strain; racemate unless indicated; read-out: 3D7_EC50.
For the compound `CC(C)CN1C(=O)c2ccccc2[C@H](C(=O)Nc2ccc(F)c(OC(F)(F)F)c2)[C@H]1c1cn[nH]c1` (racemic) [Example 31, N-(4-fluoro-3-(trifluoromethoxy)phenyl)-2-isobutyl-1-oxo-3-(1H-pyrazol-4-yl)-1,2,3,4-tetrahydroisoquinoline-4-carboxamide], the EC50 turned out to be 13 nM. Turning to `O=C(Nc1ccc(F)c(OC(F)(F)F)c1)[C@H]1c2ccccc2C(=O)N(CC(F)(F)F)[C@@H]1c1cn[nH]c1` (racemic) [Example 32, N-(4-fluoro-3-(trifluoromethoxy)phenyl)-1-oxo-3-(1H-pyrazol-4-yl)-2-(2,2,2-trifluoroethyl)-1,2,3,4-tetrahydroisoquinoline-4-carboxamide], the EC50 was 22 nM. As for `CC(C)CN1C(=O)c2ccccc2[C@H](C(=O)Nc2ccc(F)c(OC(F)(F)F)c2)[C@H]1c1cnn(C)c1` (racemic) [Example 33, N-(4-fluoro-3-(trifluoromethoxy)phenyl)-2-isobutyl-3-(1-methyl-1H-pyrazol-4-yl)-1-oxo-1,2,3,4-tetrahydroisoquinoline-4-carboxamide], the EC50 amounted to 17 nM. With `CC(C)CN1C(=O)c2ccccc2[C@H](C(=O)Nc2ccc(F)c(OC(F)(F)F)c2)[C@H]1c1cccnc1` (racemic) [Example 35, N-(4-fluoro-3-(trifluoromethoxy)phenyl)-2-isobutyl-1-oxo-3-(pyridin-3-yl)-1,2,3,4-tetrahydroisoquinoline-4-carboxamide], the EC50 came out at 63 nM.

In the case of `O=C(Nc1ccc(F)c(OC(F)(F)F)c1)[C@H]1c2ccccc2C(=O)N(CC(F)(F)F)[C@@H]1c1cccnc1` (racemic) [Example 36, N-(4-fluoro-3-(trifluoromethoxy)phenyl)-1-oxo-3-(pyridin-3-yl)-2-(2,2,2-trifluoroethyl)-1,2,3,4-tetrahydroisoquinoline-4-carboxamide], the EC50 stood at 89 nM.

Regarding `O=C(Nc1cc(F)cc(OC(F)(F)F)c1)[C@H]1c2ccccc2C(=O)N(CC(F)(F)F)[C@@H]1c1cn[nH]c1` (racemic) [Example 38, N-(3-fluoro-5-(trifluoromethoxy)phenyl)-1-oxo-3-(1H-pyrazol-4-yl)-2-(2,2,2-trifluoroethyl)-1,2,3,4-tetrahydroisoquinoline-4-carboxamide], the EC50 stood at 61 nM. Turning to `O=C(Nc1cc(F)cc(OC(F)(F)F)c1)[C@H]1c2ccccc2C(=O)N(CC(F)(F)F)[C@@H]1c1cccnc1` (racemic) [Example 42, N-(3-fluoro-5-(trifluoromethoxy)phenyl)-1-oxo-3-(pyridin-3-yl)-2-(2,2,2-trifluoroethyl)-1,2,3,4-tetrahydroisoquinoline-4-carboxamide], the EC50 was 144 nM.

In the case of `CC(C)CN1C(=O)c2cc(F)ccc2[C@H](C(=O)Nc2ccc(F)c(C#N)c2)[C@H]1c1cnn(C)c1` (racemic) [Example 45, N-(3-cyano-4-fluorophenyl)-7-fluoro-2-isobutyl-3-(1-methyl-1H-pyrazol-4-yl)-1-oxo-1,2,3,4-tetrahydroisoquinoline-4-carboxamide], the EC50 came out at 20 nM. In the case of `CC(C)CN1C(=O)c2cc(F)ccc2[C@H](C(=O)Nc2cc(Cl)cc(C#N)c2)[C@H]1c1cnn(C)c1` (racemic) [Example 46, N-(3-chloro-5-cyanophenyl)-7-fluoro-2-isobutyl-3-(1-methyl-1H-pyrazol-4-yl)-1-oxo-1,2,3,4-tetrahydroisoquinoline-4-carboxamide], the EC50 was 3 nM.

For the compound `CC(C)CN1C(=O)c2ccc(F)cc2[C@H](C(=O)Nc2cccc(C#N)c2)[C@H]1c1cnn(C)c1` (racemic) [Example 47, N-(3-cyanophenyl)-6-fluoro-2-isobutyl-3-(1-methyl-1H-pyrazol-4-yl)-1-oxo-1,2,3,4-tetrahydroisoquinoline-4-carboxamide], the EC50 was determined as 7 nM. Consider `CC(C)CN1C(=O)c2ccc(F)cc2[C@H](C(=O)Nc2cc(F)cc(C#N)c2)[C@H]1c1cnn(C)c1` (racemic) [Example 48, N-(3-cyano-5-fluorophenyl)-6-fluoro-2-isobutyl-3-(1-methyl-1H-pyrazol-4-yl)-1-oxo-1,2,3,4-tetrahydroisoquinoline-4-carboxamide], for which the EC50 turned out to be 19 nM.

Turning to `CC(C)CN1C(=O)c2ccc(F)cc2[C@H](C(=O)Nc2cc(F)cc(C#N)c2)[C@H]1c1ccc(C#N)s1` (racemic) [Example 51, N-(3-cyano-5-fluorophenyl)-3-(5-cyanothiophen-2-yl)-6-fluoro-2-isobutyl-1-oxo-1,2,3,4-tetrahydroisoquinoline-4-carboxamide], the EC50 stood at 5 nM. For the compound `COc1ccc2c(c1)C(=O)N(CC(C)C)[C@H](c1cccnc1)[C@H]2C(=O)Nc1ccc(F)c(C#N)c1` (racemic) [Example 53, N-(3-cyano-4-fluorophenyl)-2-isobutyl-7-methoxy-1-oxo-3-(pyridin-3-yl)-1,2,3,4-tetrahydroisoquinoline-4-carboxamide], the EC50 was found to be 150 nM.

`N#Cc1ccc([C@@H]2[C@@H](C(=O)Nc3ccc(F)c(C#N)c3)c3ccccc3C(=O)N2CC2CC2)s1` (racemic) [Example 54, N-(3-cyano-4-fluorophenyl)-3-(5-cyanothiophen-2-yl)-2-(cyclopropylmethyl)-1-oxo-1,2,3,4-tetrahydroisoquinoline-4-carboxamide]: the EC50 is 11 nM.

With `N#Cc1cc(NC(=O)[C@H]2c3cc(F)c(F)cc3C(=O)N(CC(F)(F)F)[C@@H]2c2cn[nH]c2)ccc1F` (racemic) [Example 59], the EC50 stood at 7 nM.

The same assay, now with this note: separated enantiomers, assayed as described in 4a; listed as 2 l; read-out: Potency (nM, 3D7 strain).
As to `N#Cc1cc(NC(=O)C2c3ccccc3C(=O)N(CC(F)(F)F)C2c2cn[nH]c2)ccc1F` (single isomer, unassigned) [Example 2 l-isomer], the EC50 stood at 303 nM.

Staying with this assay, now noted: separated enantiomers, assayed as described in 4a; listed as 6 l; read-out: Potency (nM, 3D7 strain).
In the case of `N#Cc1cc(NC(=O)C2c3ccccc3C(=O)N(CC(F)(F)F)C2c2cccnc2)ccc1F` (single isomer, unassigned) [Example 6 l-isomer, l-N-(3-cyano-4-fluoro)-1-Oxo-3-pyridin-3-yl-2-(2,2,2-trifluoro-ethyl)-1,2,3,4-tetrahydro isoquinoline-4-carboxamide], the EC50 came to 477 nM.

The same assay, now with this note: separated enantiomers, assayed as described in 4a; listed as 6 d; read-out: Potency (nM, 3D7 strain).
With `N#Cc1cc(NC(=O)C2c3ccccc3C(=O)N(CC(F)(F)F)C2c2cccnc2)ccc1F` (single isomer, unassigned; isomer d) [Example 6 d-isomer, d-N-(3-cyano-4-fluoro) -1-Oxo-3-pyridin-3-yl-2-(2,2,2-trifluoro-ethyl)-1,2,3,4-tetrahydro-isoquinoline-4-carboxamide], the EC50 was 15 nM.

Still in this assay, the particulars now being: separated enantiomers, assayed as described in 4a; read-out: Potency (nM, 3D7 strain).
With `N#Cc1cc(F)cc(NC(=O)C2c3ccccc3C(=O)N(CC(F)(F)F)C2c2cn[nH]c2)c1` (single isomer, unassigned; isomer d) [Example 20 d-isomer, d-N-(3-cyano-5-fluorophenyl)-1-oxo-3-(1H-pyrazol-4-yl)-2-(2,2,2-trifluoroethyl)-1,2,3,4-tetrahydroisoquinoline-4-carboxamide], the EC50 was 11 nM.
